Assay results taken from PubChem BioAssay (NCI).
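Grown in 96-well plates, cells were treated for 48 hours with each compound at five concentrations. Insufficient inhibition: endpoint recorded as highest concentration tested. The concentration for 50% growth inhibition is given as GI50. Definition used: TGI = concentration required for complete inhibition of growth.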

Assays:
Test in all cases: DTP human tumour cell line panel, 48 h
OVCAR-8 ovarian = test system: OVCAR-8 ovarian
NCI-H522 lung = test system: NCI-H522 lung
SNB-19 CNS = test system: SNB-19 CNS
SNB-75 CNS = test system: SNB-75 CNS
NCI-H23 lung = test system: NCI-H23 lung
MALME-3M melanoma = test system: MALME-3M melanoma
NCI-H226 lung = test system: NCI-H226 lung
786-0 renal = test system: 786-0 renal
RXF 393 renal = test system: RXF 393 renal
SK-MEL-5 melanoma = test system: SK-MEL-5 melanoma

SMILES | TGI (OVCAR-8 ovarian) [µM] | TGI (NCI-H522 lung) [µM] | TGI (SNB-19 CNS) [µM] | TGI (SNB-75 CNS) [µM] | TGI (NCI-H23 lung) [µM] | TGI (MALME-3M melanoma) [µM] | TGI (NCI-H226 lung) [µM] | TGI (786-0 renal) [µM] | TGI (RXF 393 renal) [µM] | TGI (SK-MEL-5 melanoma) [µM] | GI50 (OVCAR-8 ovarian) [µM] | GI50 (NCI-H522 lung) [µM] | GI50 (SNB-19 CNS) [µM] | GI50 (SNB-75 CNS) [µM] | GI50 (NCI-H23 lung) [µM] | GI50 (MALME-3M melanoma) [µM] | GI50 (NCI-H226 lung) [µM] | GI50 (786-0 renal) [µM] | GI50 (RXF 393 renal) [µM] | GI50 (SK-MEL-5 melanoma) [µM]
CC1(c2ccc(F)cc2)C(C#N)C(=O)NC(=O)C1C#N (stereo not given) | > 100 | > 100 | > 100 | > 100 | > 100 | > 100 | > 100 | > 100 | > 100 | > 100 | – | – | – | – | – | – | – | – | – | –
O=CN/C=C/c1cc(O)ccc1O | 43 | 11.2 | > 100 | 98.2 | 43.7 | 35.6 | > 88.1 | 27.1 | 26.3 | 39.3 | – | – | – | – | – | – | – | – | – | –
Cc1ccc(N=Nc2ccc(N(CCC#N)CCC#N)cc2C)c(Br)c1 | > 100 | > 100 | > 100 | > 100 | > 100 | > 100 | 61.5 | 61.5 | 46.1 | 56.5 | – | – | – | – | – | – | – | – | – | –
CC(C)C/C(CC(=O)CCC(=O)Nc1ccccc1[N+](=O)[O-])=N\NC(=O)c1cc2ccccc2cc1O | 95.8 | 76 | > 100 | > 100 | > 100 | > 100 | > 100 | > 100 | > 100 | 67.5 | – | – | – | – | – | – | – | – | – | –
OCc1ccc(N2CCC2c2ccc(F)cc2)cc1Cl (stereo not given) | > 100 | 55.9 | > 100 | > 100 | > 80.1 | > 66.1 | 0.322 | > 61.5 | 30.4 | 22.9 | 23.6 | 20.9 | 36.6 | 20.6 | 22.2 | 29.4 | 0.0912 | 22.6 | 11.6 | 8.92
